Laboratory results: PubChem BioAssay (NCI)
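Values below derive from 48-hour exposures of cells grown in 96-well plates, with endpoints linearly interpolated between the two concentrations bracketing the appropriate inhibition level. GI50 = concentration required for 50% inhibition of growth. At the TGI there is no net growth.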

How the values were obtained:
Test in all cases: growth of human tumour cells (NCI), 48 h
KM12 colon = system: KM12 colon
786-0 renal = system: 786-0 renal
PC-3 prostate = system: PC-3 prostate
SK-MEL-28 melanoma = system: SK-MEL-28 melanoma
DU-145 prostate = system: DU-145 prostate
UACC-62 melanoma = system: UACC-62 melanoma
A498 renal = system: A498 renal
OVCAR-4 ovarian = system: OVCAR-4 ovarian
UO-31 renal = system: UO-31 renal
K-562 leukemia = system: K-562 leukemia
HL-60(TB) leukemia = system: HL-60(TB) leukemia
BT-549 breast = system: BT-549 breast
SNB-75 CNS = system: SNB-75 CNS
SN12C renal = system: SN12C renal
RXF 393 renal = system: RXF 393 renal
NCI-H522 lung = system: NCI-H522 lung
LOX IMVI melanoma = system: LOX IMVI melanoma
HCT-15 colon = system: HCT-15 colon
ACHN renal = system: ACHN renal
T-47D breast = system: T-47D breast
HOP-62 NSCLC = system: HOP-62 NSCLC
OVCAR-8 ovarian = system: OVCAR-8 ovarian
SK-MEL-2 melanoma = system: SK-MEL-2 melanoma
MCF7 breast = system: MCF7 breast
U251 CNS = system: U251 CNS
HOP-92 NSCLC = system: HOP-92 NSCLC
EKVX NSCLC = system: EKVX NSCLC
HCT-116 colon = system: HCT-116 colon
NCI-H460 lung = system: NCI-H460 lung
SR leukemia = system: SR leukemia
SF-295 CNS = system: SF-295 CNS
SNB-19 CNS = system: SNB-19 CNS
NCI-H226 lung = system: NCI-H226 lung
HS 578T breast = system: HS 578T breast
COLO 205 colon = system: COLO 205 colon
MDA-MB-435 = system: MDA-MB-435
A549 NSCLC = system: A549 NSCLC
SF-539 CNS = system: SF-539 CNS
HCC-2998 colon = system: HCC-2998 colon
SF-268 CNS = system: SF-268 CNS
SK-OV-3 ovarian = system: SK-OV-3 ovarian
OVCAR-3 ovarian = system: OVCAR-3 ovarian
OVCAR-5 ovarian = system: OVCAR-5 ovarian
UACC-257 melanoma = system: UACC-257 melanoma
HT29 colon = system: HT29 colon
RPMI-8226 leukemia = system: RPMI-8226 leukemia
CCRF-CEM leukemia = system: CCRF-CEM leukemia
M14 melanoma = system: M14 melanoma
IGROV1 ovarian = system: IGROV1 ovarian
TK-10 renal = system: TK-10 renal
CAKI-1 renal = system: CAKI-1 renal
NCI-H23 lung = system: NCI-H23 lung
NCI/ADR-RES ovarian = system: NCI/ADR-RES ovarian
SK-MEL-5 melanoma = system: SK-MEL-5 melanoma
SW-620 colon = system: SW-620 colon
MOLT-4 leukemia = system: MOLT-4 leukemia
MDA-MB-231 breast = system: MDA-MB-231 breast
MALME-3M melanoma = system: MALME-3M melanoma

Work on `COc1cc(-c2n/c(=C\c3c(O)[nH]c4ccccc34)cc3c2=Nc2ccccc2-3)cc(OC)c1OC` yielded a GI50 (KM12 colon) of 2.03 µM, a TGI (KM12 colon) of 16.4 µM and a GI50 (786-0 renal) of 0.864 µM. It also gave a TGI (786-0 renal) of 31.7 µM, a GI50 (PC-3 prostate) of 2.19 µM and a TGI (PC-3 prostate) of over 100 µM. For the same compound, the GI50 (SK-MEL-28 melanoma) was 6.43 µM, the TGI (SK-MEL-28 melanoma) was over 100 µM and the GI50 (DU-145 prostate) was 1.12 µM. It also gave a TGI (DU-145 prostate) of over 100 µM, a GI50 (UACC-62 melanoma) of 0.707 µM and a TGI (UACC-62 melanoma) of over 100 µM. For the same compound, the GI50 (A498 renal) was 0.854 µM, the TGI (A498 renal) was 6.25 µM and the GI50 (OVCAR-4 ovarian) was 0.506 µM. It also gave a TGI (OVCAR-4 ovarian) of over 100 µM, a GI50 (UO-31 renal) of 2.5 µM and a TGI (UO-31 renal) of over 100 µM. For the same compound, the GI50 (K-562 leukemia) was 0.586 µM, the TGI (K-562 leukemia) was over 100 µM and the GI50 (HL-60(TB) leukemia) was 2.16 µM. The TGI (HL-60(TB) leukemia) was 5.03 µM, the GI50 (BT-549 breast) was 0.486 µM and the TGI (BT-549 breast) was 2.47 µM. It also gave a GI50 (SNB-75 CNS) of 0.381 µM, a TGI (SNB-75 CNS) of over 100 µM and a GI50 (SN12C renal) of 0.523 µM. The TGI (SN12C renal) was over 100 µM, the GI50 (RXF 393 renal) was 0.436 µM and the TGI (RXF 393 renal) was 5.34 µM. The GI50 (NCI-H522 lung) was 0.247 µM, the TGI (NCI-H522 lung) was 0.664 µM and the GI50 (LOX IMVI melanoma) was 0.552 µM. It also gave a TGI (LOX IMVI melanoma) of over 100 µM, a GI50 (HCT-15 colon) of 1.72 µM and a TGI (HCT-15 colon) of over 100 µM. It also gave a GI50 (ACHN renal) of 1.11 µM, a TGI (ACHN renal) of over 100 µM and a GI50 (T-47D breast) of 1.14 µM. The TGI (T-47D breast) was over 22.5 µM, the GI50 (HOP-62 NSCLC) was 0.536 µM and the TGI (HOP-62 NSCLC) was over 100 µM. For the same compound, the GI50 (OVCAR-8 ovarian) was 2.53 µM, the TGI (OVCAR-8 ovarian) was over 100 µM and the GI50 (SK-MEL-2 melanoma) was 1.41 µM. The TGI (SK-MEL-2 melanoma) was 29.6 µM, the GI50 (MCF7 breast) was 0.363 µM and the TGI (MCF7 breast) was over 23.2 µM. It also gave a GI50 (U251 CNS) of 0.333 µM, a TGI (U251 CNS) of 12.1 µM and a GI50 (HOP-92 NSCLC) of 0.385 µM. It also gave a TGI (HOP-92 NSCLC) of 6.28 µM, a GI50 (EKVX NSCLC) of over 24.9 µM and a TGI (EKVX NSCLC) of over 100 µM. For the same compound, the GI50 (HCT-116 colon) was 0.392 µM, the TGI (HCT-116 colon) was 2.44 µM and the GI50 (NCI-H460 lung) was 0.334 µM. The TGI (NCI-H460 lung) was 1.76 µM, the GI50 (SR leukemia) was 0.692 µM and the TGI (SR leukemia) was over 29.1 µM. For the same compound, the GI50 (SF-295 CNS) was 0.666 µM, the TGI (SF-295 CNS) was over 38.4 µM and the GI50 (SNB-19 CNS) was 2.68 µM. It also gave a TGI (SNB-19 CNS) of over 100 µM, a GI50 (NCI-H226 lung) of 4.23 µM and a TGI (NCI-H226 lung) of over 100 µM. The GI50 (HS 578T breast) was 0.418 µM, the TGI (HS 578T breast) was 68 µM and the GI50 (COLO 205 colon) was 1.55 µM. The TGI (COLO 205 colon) was 6.7 µM, the GI50 (MDA-MB-435) was 1.68 µM and the TGI (MDA-MB-435) was 6.48 µM. The GI50 (A549 NSCLC) was 0.675 µM, the TGI (A549 NSCLC) was over 100 µM and the GI50 (SF-539 CNS) was 0.783 µM. For the same compound, the TGI (SF-539 CNS) was 7.83 µM, the GI50 (HCC-2998 colon) was 2.32 µM and the TGI (HCC-2998 colon) was 6.48 µM. It also gave a GI50 (SF-268 CNS) of 1.39 µM, a TGI (SF-268 CNS) of over 100 µM and a GI50 (SK-OV-3 ovarian) of 4.58 µM. For the same compound, the TGI (SK-OV-3 ovarian) was over 100 µM, the GI50 (OVCAR-3 ovarian) was 0.506 µM and the TGI (OVCAR-3 ovarian) was 2.6 µM. The GI50 (OVCAR-5 ovarian) was 4.32 µM, the TGI (OVCAR-5 ovarian) was over 100 µM and the GI50 (UACC-257 melanoma) was 1.73 µM. It also gave a TGI (UACC-257 melanoma) of over 100 µM, a GI50 (HT29 colon) of 0.407 µM and a TGI (HT29 colon) of 2.53 µM. It also gave a GI50 (RPMI-8226 leukemia) of 3.09 µM, a TGI (RPMI-8226 leukemia) of over 26.4 µM and a GI50 (CCRF-CEM leukemia) of 1.12 µM. For the same compound, the TGI (CCRF-CEM leukemia) was over 100 µM, the GI50 (M14 melanoma) was 0.785 µM and the TGI (M14 melanoma) was 4.26 µM. It also gave a GI50 (IGROV1 ovarian) of 2 µM, a TGI (IGROV1 ovarian) of over 24.5 µM and a GI50 (TK-10 renal) of 2.18 µM. The TGI (TK-10 renal) was 25 µM, the TGI (CAKI-1 renal) was over 100 µM and the GI50 (NCI-H23 lung) was 0.39 µM. It also gave a TGI (NCI-H23 lung) of over 100 µM, a GI50 (NCI/ADR-RES ovarian) of 1.62 µM and a TGI (NCI/ADR-RES ovarian) of over 31.5 µM. The GI50 (SK-MEL-5 melanoma) was 0.289 µM, the TGI (SK-MEL-5 melanoma) was 2.88 µM and the GI50 (SW-620 colon) was 0.449 µM. The TGI (SW-620 colon) was over 100 µM, the GI50 (MOLT-4 leukemia) was 0.528 µM and the TGI (MOLT-4 leukemia) was 7.34 µM. For the same compound, the GI50 (MDA-MB-231 breast) was 2.11 µM, the TGI (MDA-MB-231 breast) was over 28.2 µM and the GI50 (MALME-3M melanoma) was 0.448 µM. For the same compound, the TGI (MALME-3M melanoma) was over 100 µM.
